Where two headings read alike, the source gives them in different places.
Experiments:
[1] = system: human hepatoma cell HepG2 xenotransplantation tumor; experiment: Gavage administration, inhibition of xenografted tumors of tumor-bearing nude mice; format: in vivo; conditions: 14 times; for Tumor weight: day 15; for Inhibition rate(%): tumor weight vs model group
Excerpt: Inoculate the human hepatoma cell strain HepG2 subcutaneously at an armpit of a nude mouse, as to establish a human hepatoma cell HepG2 xenotransplantation tumor model. Take the cells HepG2 in logarithmic growth phase, under sterile conditions, inoculate the cells subcutaneously at right armpits of 55 nude mice. Measure the diameter of the xenograft tumors by a vernier caliper, when the tumors grow to about 100 mm^3, choose 48 tumor-bearing nude mice having an uniform tumor size in a good growth status, then randomly divide them into 8 groups, each of which has 6 mice, namely a model group, a 7a low-dosage group (50 mg/kg), a 7a medium-dosage group (100 mg/kg), a 7a high-dosage group (150 mg/kg), and a sorafenib group (50 mg/kg). Share an isovolumic solvent among the mice in the model group through gavage, administer drugs through gavage once a day. Administer drugs in the 7a low-dosage group, the 7a medium-dosage group, and the 7a high-dosage group once a day at 50 mg/kg, 100 mg/kg, and 150 mg/kg, respectively, to reach 14 times administration in total. Administer drugs in the sorafenib group once a day at 50 mg/kg, to reach 14 times administration in total. Dynamically observe the anti-tumor effect of the subjects by adopting the method of measuring tumor diameters. Measure the tumor diameter on alternate days, while weigh the body weight of nude mice. On the 15th day, kill the mice, then pick away tumor lumps surgically and weigh them, and preserve the tumor tissue in a liquid nitrogen tank, next calculate the tumor inhibition rate (%). Tumor inhibition rate (%)= (tumor weight in the model group-tumor weight in the administration group)/tumor weight in the model group×100%.

[2] = system: HepG2; experiment: CCK-8 anti-tumor activity, IC50; format: cell-based; conditions: Homo sapiens
Experimental: (§1) Take cells in logarithmic growth phase for experiments. Digest and count the cells, then make them into a cell suspension in 1×10^5 cells/mL, next seed the cell suspension in a 96-hole plate (100 μL per hole), then place the plate in a 5% CO2 incubator at 37° C. to be incubated for 24 hours. Add a subject with a corresponding concentration into each hole, and concurrently set up a negative control group and a blank group, each of which has 3 holes. After having placed the plate in the incubator for 72 hours, observe the morphologies of cells in each group under a microscope, then add a 10 μL CCK8 solution to each hole, and continue incubating the cells in the incubator for 4 hours, measure the absorbance value at 450 nm. In the test, take cells with 8 concentration gradients respectively, then measure the inhibition rate corresponding to each concentration. Use the GraphPad Prism 5.0 statistical software to treat data, use the t-test software to make a comparison between two groups, and use the One-way Anova (Dunnett) software to make a comparison among multiple groups. if P<0.05, the results have statistical significance, and then calculate the IC50 value.

[3] = system: SW480; experiment: CCK-8 anti-tumor activity, IC50; format: cell-based; conditions: Homo sapiens, 72 hours
Experimental: as §1

[4] = system: A549; experiment: CCK-8 anti-tumor activity, IC50; format: cell-based; conditions: Homo sapiens, 72 hours
Experimental: as §1

[5] = system: Hela; experiment: CCK-8 anti-tumor activity, IC50; format: cell-based; conditions: Homo sapiens
Experimental: as §1

[6] = system: HepG2 cell strain; experiment: In-vitro inhibitory activity against proliferation of tumor cells (CCK8, inhibition rate); format: cell-based, human; conditions: for inhibition at 1 µM / inhibition at 10 µM / inhibition at 0.1 µM: Homo sapiens, 72 hours
Experimental: Take cells in logarithmic growth phase for experiments. Digest and count the cells, then make them into a cell suspension in 1×10^5 cells/mL, next seed the cell suspension in a 96-hole plate (100 μL per hole), then place the plate in a 5% CO2 incubator at 37° C. to be incubated for 24 hours. Add a subject with a corresponding concentration into each hole, and concurrently set up a negative control group and a blank group, each of which has 3 holes. After having placed the plate in the incubator for 72 hours, observe the morphologies of cells in each group under a microscope, then add a 10 μL CCK8 solution to each hole, and continue incubating the cells in the incubator for 4 h. Measure the absorbance value at 450 nm, and calculate the inhibition rate of cell proliferation; if P<0.05, the results have statistical significance.

[7] = system: MCF-7; experiment: CCK-8 anti-tumor activity, IC50; format: cell-based, human; conditions: for IC50: Homo sapiens, MCF7, MCF-7, 72 hours
Experimental: as §1

[8] = system: SGC7901; experiment: CCK-8 anti-tumor activity, IC50; format: cell-based, human; conditions: for IC50: Homo sapiens, SGC-7901, SGC7901, 72 hours
Experimental: as §1

[9] = read-out: IC50 value against the Hela cells

In the case of CNC(=O)c1cc(Oc2ccc(NC(=O)Nc3ccc(Cl)c(C(F)(F)F)c3)cc2)ccn1 [sorafenib, reference compound], the “Tumor weight” value ([1]; 50 mg/kg gavage once a day) is reported as 0.581 ± 0.089 g and the “Inhibition rate(%)” value ([1]; 50 mg/kg gavage once a day) is reported as 59.3%.
For COc1ccc(CCc2cc(OC)c(OC)c(OC)c2)cc1OC(=O)C(Cl)Cl [7a, 2-methoxy-5-(3,4,5-trimethoxyphenylethyl) phenyl 2,2-dichloroacetate], the “Tumor weight” value ([1]; 50 mg/kg gavage once a day) was 0.569 ± 0.103 g, the “Inhibition rate(%)” value ([1]; 50 mg/kg gavage once a day) was 62.0% and the “Tumor weight” value ([1]; 100 mg/kg gavage once a day) was 0.479 ± 0.100 g. For the same compound, the “Inhibition rate(%)” value ([1]; 100 mg/kg gavage once a day) was 72.4%, the “Tumor weight” value ([1]; 150 mg/kg gavage once a day) was 0.314 ± 0.076 g and the “Inhibition rate(%)” value ([1]; 150 mg/kg gavage once a day) was 86.9%. It also gave an IC50 ([2]; 72 hours, read-out: IC50) of 48.9 nM, an IC50 ([2]; read-out: IC50 value against the HepG2 cells) of 48.9 nM and an IC50 [3] of 940 nM. It also gave an IC50 [4] of 726 nM, an IC50 ([5]; 72 hours, read-out: IC50) of 516 nM and an IC50 [5, 9] of 516 nM. The “inhibitory activity against HepG2 cells (in words)” value [6] was “good inhibitory activity”, the inhibition at 1 µM [6] was 94.43 ± 0.89% and the inhibition at 10 µM [6] was 89.3 ± 1.5%. For the same compound, the IC50 [7] was 656 nM and the IC50 [8] was 469 nM.
Compound COc1ccc(CCc2cc(OC)c(OC)c(OC)c2)cc1OC(=O)CNC(=O)C(Cl)Cl [8a, 2-methoxy-5-(3,4,5-trimethoxyphenylethyl) phenyl3-(2,2-dichloroacetamide) acetate] has an inhibition at 0.1 µM [6] of 18.5 ± 1.16%, an inhibition at 1 µM [6] of 30 ± 2.03% and an inhibition at 10 µM [6] of 45.6 ± 2.53%.
With CCOc1ccc(CCc2cc(OC)c(OC)c(OC)c2)cc1OC(=O)C(Cl)Cl [7b] the “inhibitory activity against HepG2 cells (in words)” value [6] was “better than that of erianin”, the inhibition at 0.1 µM [6] was 35.7 ± 2.42% and the inhibition at 1 µM [6] was 48.4 ± 9.88%. The inhibition at 10 µM [6] was 73.7 ± 4.7%.
Compound COc1ccc(CCc2cc(OC)c(OC)c(OC)c2)cc1OC(=O)CCCNC(=O)C(Cl)Cl [8c, 2-methoxy-5-(3,4,5-trimethoxyphenylethy) phenyl4-(2,2-dichloroacetamide) butyrate] has an inhibition at 0.1 µM [6] of 36.1 ± 11.7%, an inhibition at 1 µM [6] of 68.7 ± 0.72% and an inhibition at 10 µM [6] of 89.27 ± 0.66%.
For COc1ccc(CCc2cc(OC)c(OC)c(OC)c2)cc1OC(=O)CCCCCNC(=O)C(Cl)Cl [8d, 2-methoxy-5-(3,4,5-trimethoxyphenylethyl) phenyl6-(2,2-dichloroacetamide) hexanoate], the IC50 ([2]; 72 hours, read-out: IC50) was 135 nM, the IC50 [3] was 326 nM and the IC50 ([5]; 72 hours, read-out: IC50) was 288 nM. The IC50 [5, 9] was 288 nM, the “inhibitory activity against HepG2 cells (in words)” value [6] was “good inhibitory activity” and the inhibition at 0.1 µM [6] was 50.9 ± 4.44%. For the same compound, the inhibition at 1 µM [6] was 73 ± 3.1%, the inhibition at 10 µM [6] was 90.6 ± 2.33% and the IC50 [7] was 174 nM. The “inhibitory activity compared with erianin (in words)” value ([7]; human breast cancer MCF-7 cell strains) was “superior to erianin”, the IC50 [8] was 103 nM and the “inhibitory activity compared with erianin (in words)” value ([8]; human gastric cancer SGC7901 cell strains) was “superior to erianin”.
Work on COc1ccc(CCc2cc(OC)c(OC)c(OC)c2)cc1OC(=O)CCNC(=O)C(Cl)Cl [8b, 2-methoxy-5-(3,4,5-trimethoxyphenyletyl) phenyl3-(2,2-dichloroacetamide) propionate] yielded an inhibition at 0.1 µM [6] of 37.5 ± 4.49%, an inhibition at 1 µM [6] of 55.8 ± 4.37% and an inhibition at 10 µM [6] of 74.2 ± 2.41%.
